# Paper PMC10390652 (Inorganic chemistry, 2023)
# Assay: Biodistribution in healthy mice
# Assay type: in vivo, female Balb/c mice
# Conditions: in saline
smiles,measurement,setting,value
[47Sc+3].[Cl-].[Cl-].[Cl-] [free ^47Sc],biodistribution pattern at 1 hour,n=4,"more widespread uptake within heart, lungs, spleen, kidney, and femur"
same,biodistribution pattern at 1 hour,"n=4, listed as [^47Sc]ScCl3","widespread biodistribution with uptake seen in heart, spleen and kidneys along with the liver, and intestines"
